These results are taken from ChEMBL document CHEMBL4665541, “Search for new therapeutic options for the uncommon pathogen Mycobacterium chimaera: an open drug discovery approach” (Lancet Microbe, 2021).

Type in all cases: functional, organism-based
Design in all cases: conc 20 uM

Assay [1] deals with Mycobacterium tuberculosis. Nature of the assay: (§1) Inhibition of mycobacterial growth using the resazurin microtitre cell viability assay (REMA), compounds at final concentration of 20 µM (2% v/v DMSO). Hits were classed as compounds that inhibited bacterial growth by 70% or more compared to drug-free controls. The following applies: H37Rv. On the technique in general: The colour change of resazurin is a common sign of viable cells or microbes.

In assay [2] the test system is Mycobacterium intracellulare subsp. chimaera. The description is as §1. As to conditions: NCTC13781.
The subject of assay [3] is Mycobacteroides abscessus. The assay is described as §1. As to conditions: ATCC19977.

MMV019790: the Survival is 90.2% in assay [1], 102% in assay [2] and 107% in assay [3].
For MMV688796, in that order: 99.3%, 93.4% and 103%.
Take MMV676057: the values for the Survival in assay [1], in assay [2] and in assay [3] were 109%, 110% and 109%, respectively.
Consider MMV675994, for which the Survival is 81.9% in assay [1], 108% in assay [2] and 105% in assay [3].
On the same counts, the results for MMV688514 are 91.7%, 100% and 111%.
On the same counts, the results for MMV676449 are 90.2%, 84.8% and 102%.
On the same counts, the results for MMV676584 are 66.8%, 90.2% and 115%.
For MMV687273, the results for the Survival in assay [1], in assay [2] and in assay [3] were 31.5%, 110% and 111%, respectively.
On the same counts, the results for MMV676409 are 19.2%, 85.7% and 122%.
In the case of MMV020081, the Survival in assay [1] is 89.4%; in assay [2] it was 87.7%; in assay [3] it was 118%.
On the same counts, the results for MMV688774 are 100%, 79.3% and 107%.
On the same counts, the results for MMV023969 are 19.5%, 92.8% and 96%.
On the same counts, the results for MMV688472 are 98%, 92.3% and 103%.
Consider MMV009054, for which the Survival was 98.7% in assay [1], 100% in assay [2] and 105% in assay [3].
On the same counts, the results for MMV687699 are 53.6%, 93.8% and 114%.
On the same counts, the results for MMV688941 are 69.8%, 104% and 120%.
On the same counts, the results for MMV687700 are 84.1%, 88% and 107%.
MMV688273: the Survival in assay [1] is 97.8%; in assay [2], 106%; in assay [3] it was 100%.
On the same counts, the results for MMV495543 are 85.3%, 86.9% and 84.2%.
In the case of MMV688415, the Survival in assay [1] is 88.9%; in assay [2], 97.2%; in assay [3] it was 101%.
On the same counts, the results for MMV676528 are 88.7%, 102% and 115%.
In the case of MMV676605, the Survival was 99.5% in assay [1], 110% in assay [2] and 122% in assay [3].
For MMV011229, in that order: 92.6%, 94% and 97.3%.
MMV062221: the Survival in assay [1] was 103%; in assay [2], 112%; in assay [3], 114%.
For MMV001493, in that order: 93.6%, 106% and 128%.
For MMV688768, in that order: 87%, 93.9% and 109%.
As to MMV021660, the Survival is 67.5% in assay [1], 107% in assay [2] and 102% in assay [3].
On the same counts, the results for MMV688921 are 110%, 109% and 110%.
On the same counts, the results for MMV688508 are 7.31%, -0.22% and 18.6%.
On the same counts, the results for MMV688350 are 105%, 92.5% and 102%.
On to MMV676472, for which the Survival in assay [1] was 120%; in assay [2], 92.2%; in assay [3], 115%.
